Measured values as given in US4015974A, “Amido phosphorothiolates” (priority 1972, dated 1977).

How the values were obtained:
Assay type in all cases: in vivo
[1] = tested on: common lambsquarter (Chenopodium album); test: Pre-emergence application, herbicidal effect on common lambsquarter (Table 1); design: key: 0: not damaged; 5: completely killed; conditions: 20 days after application, score 0-5
Outline: (§1)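 Pre-emergence soil application of wettable powders diluted in water over covered seeds (~10 cm pots). Greenhouse growth; visual 0–5 rating (0 none, 5 dead) at 20 days.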

radish = test: Pre-emergence application, herbicidal effect on radish (Table 1); design: key: 0: not damaged; 5: completely killed; conditions: 20 days after application, score 0-5
Outline: as §1

[2] = tested on: common purslane (Portulaca oleracea); test: Pre-emergence application, herbicidal effect on common purslane (Table 1); design: key: 0: not damaged; 5: completely killed; conditions: 20 days after application, score 0-5
Outline: as §1

[3] = tested on: tobacco cut worm (Spondoptera litura); test: Lethal effect on tobacco cut worm (Table 5); conditions: tobacco cutworm, larvae on chinese cabbage leaves, 48 h
Protocol: The present compounds of an emulsifiable concentrate type were applied to leaves of chinese cabbage in the form of an 1000 fold dilute solution. After air-drying, third to fourth instar larvae of tobacco cut worm were released and after 48 hours the death and alive were observed.

[4] = tested on: broad-leaved weeds, e.g., monochoria, false pimpernel and toothcup; test: Water application, herbicidal effect on broad-leaved weeds (Table 2); design: key: 0: not damaged; 5: completely killed; conditions: 25 days, score 0-5
Outline: (§2)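 Under water-lodged conditions, wettable-powder test compounds are applied to paddy soil carrying transplanted rice (3-leaf) and sown barnyard grass. Activity on these and on spontaneously emerged broad-leaved weeds is graded 0 to 5 twenty-five days later.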

[5] = tested on: barnyard grass (Echinochloa crus-galli); test: Water application, herbicidal effect on barnyard grass (Table 2); design: key: 0: not damaged; 5: completely killed; conditions: 25 days, score 0-5
Outline: as §2

rice = test: Water application, phytotoxicity on rice (Table 2); design: key: 0: no effect; 1: very slightly affected; 2: slightly affected; 3: moderately affected; 4: considerably affected; 5: completely killed; conditions: 25 days, score 0-5
Outline: as §2

[6] = tested on: barnyard grass (Echinochloa crus-galli); test: Pre-emergence application, herbicidal effect on barnyard grass (Table 1); design: key: 0: not damaged; 5: completely killed; conditions: 20 days after application, score 0-5
Outline: as §1

[7] = tested on: redroot pigweed (Amaranthus retroflexus); test: Pre-emergence application, herbicidal effect on redroot pigweed (Table 1); design: key: 0: not damaged; 5: completely killed; conditions: 20 days after application, score 0-5
Outline: as §1

[8] = tested on: large crabgrass (Digitaria sanguinalis); test: Pre-emergence application, herbicidal effect on large crabgrass (Table 1); design: key: 0: not damaged; 5: completely killed; conditions: 20 days after application, score 0-5
Outline: as §1

[9] = tested on: barnyard grass (Echinochloa crus-galli); test: Water application, herbicidal effect on barnyard grass (Table 2); design: key: 0: no effect; 1: very slightly affected; 2: slightly affected; 3: moderately affected; 4: considerably affected; 5: completely killed; conditions: 25 days, score 0-5
Text: Wagner pots of 14 cm. in diameter, which had been packed with 1.5 kg. of paddy field soil, were brought into the state of paddy fields. To the pots were transplanted rice seedlings at the 3-leave stage. Further, seeds of barnyard grass (Echinochloa crus-galli) were sowed in the pots and required amounts of test compounds were applied to the soil under water lodged condition. 25 days after application, the degrees of herbicidal activity and phytotoxity were investigated on above-mentioned plants which had been transplanted and sowed, and on broad-leaved weeds, e.g., monochoria (Monochoria viaginalis Presl.), false pimpernel (Linderna pyxidaria) and toothcup (Rotala indica Koehue), which had been spontaneously germinated. The test compounds were used in the form of wettable powder. The herbicidal effects and the phytotoxity were evaluated as follows by the numerals ranging from 0 to 5.

[10] = tested on: broad-leaved weeds, e.g., monochoria, false pimpernel and toothcup; test: Water application, herbicidal effect on broad-leaved weeds (Table 2); design: key: 0: no effect; 1: very slightly affected; 2: slightly affected; 3: moderately affected; 4: considerably affected; 5: completely killed; conditions: 25 days, score 0-5
Outline: as §2

| Compound | Herbicidal effect, common lambsquarter ([1]; 10 g./a.) | Herbicidal effect, common lambsquarter ([1]; 20 g./a.) | Herbicidal effect, common lambsquarter ([1]; 40 g./a.) | Herbicidal effect, radish (radish; 10 g./a.) | Herbicidal effect, radish (radish; 20 g./a.) | Herbicidal effect, radish (radish; 40 g./a.) | Herbicidal effect, common purslane ([2]; 10 g./a.) | Herbicidal effect, common purslane ([2]; 20 g./a.) | Herbicidal effect, common purslane ([2]; 40 g./a.) | Herbicidal effects, broad-leaved weeds ([4]; 10 g/a) | Herbicidal effects, broad-leaved weeds ([4]; 20 g/a) | Herbicidal effects, broad-leaved weeds ([4]; 40 g/a) | Phytotoxicity on rice (rice; 20 g/a) | Phytotoxicity on rice (rice; 40 g/a) | Herbicidal effect, barnyard grass ([6]; 20 g./a.) | Herbicidal effect, barnyard grass ([6]; 40 g./a.) | Herbicidal effect, redroot pigweed ([7]; 20 g./a.) | Herbicidal effect, redroot pigweed ([7]; 40 g./a.) | Herbicidal effect, large crabgrass ([8]; 20 g./a.) | Herbicidal effect, large crabgrass ([8]; 40 g./a.) | further results |
| --- | --- | --- | --- | --- | --- | --- | --- | --- | --- | --- | --- | --- | --- | --- | --- | --- | --- | --- | --- | --- | --- |
| CCCSP(=O)(OCC)SCC(=O)N1CCCC(C)C1 (stereo not shown) [Compound 13] | 4 | 5 | 5 | 0 | 0 | 0 | 4 | 5 | 5 | 5 | 5 | 5 | 0 | 0 | 5 | 5 | 5 | 5 | 5 | 5 | Mortality [3]: 73.3%; Herbicidal effects, barnyard grass ([5]; 10 g/a): 5; Herbicidal effects, barnyard grass ([5]; 20 g/a): 5; Herbicidal effects, barnyard grass ([5]; 40 g/a): 5; Phytotoxicity on rice (rice; 10 g/a): 0; Herbicidal effect, barnyard grass ([6]; 10 g./a.): 5; Herbicidal effect, redroot pigweed ([7]; 10 g./a.): 4; Herbicidal effect, large crabgrass ([8]; 10 g./a.): 5 |
| CCOP(=O)(SCCc1ccccc1)SCC(=O)N1CCCCC1C (stereo not shown) [Compound 63] | 4 | 4 | 5 | 0 | 0 | 0 | 4 | 5 | 5 | 5 | 5 | 5 | 0 | 0 | 5 | 5 | 5 | 5 | 5 | 5 | Herbicidal effects, barnyard grass ([9]; 10 g/a): 4; Herbicidal effects, barnyard grass ([5]; 20 g/a): 5; Herbicidal effects, barnyard grass ([5]; 40 g/a): 5; Phytotoxicity on rice (rice; 10 g/a): 0; Herbicidal effect, barnyard grass ([6]; 10 g./a.): 5; Herbicidal effect, redroot pigweed ([7]; 10 g./a.): 4; Herbicidal effect, large crabgrass ([8]; 10 g./a.): 4 |
| CCOP(=O)(SCC(=O)N1CCCCC1C)SCC(C)c1ccccc1 (stereo not shown) [Compound 65] | 4 | 4 | 5 | 0 | 0 | 0 | 4 | 4 | 5 | 5 | 5 | 5 | 0 | 0 | 5 | 5 | 4 | 5 | 5 | 5 | Herbicidal effects, barnyard grass ([9]; 10 g/a): 4; Herbicidal effects, barnyard grass ([5]; 20 g/a): 5; Herbicidal effects, barnyard grass ([5]; 40 g/a): 5; Phytotoxicity on rice (rice; 10 g/a): 0; Herbicidal effect, barnyard grass ([6]; 10 g./a.): 5; Herbicidal effect, redroot pigweed ([7]; 10 g./a.): 4; Herbicidal effect, large crabgrass ([8]; 10 g./a.): 5 |
| CCOP(=O)(SCCCC(C)C)SCC(=O)N1CCCCC1CC (stereo not shown) [Compound 80] | 3 | 4 | 5 | 0 | 0 | 0 | 3 | 4 | 5 | 5 | 5 | 5 | 0 | 2 | 5 | 5 | 4 | 5 | 5 | 5 | Herbicidal effects, barnyard grass ([9]; 10 g/a): 4; Herbicidal effects, barnyard grass ([5]; 20 g/a): 5; Herbicidal effects, barnyard grass ([5]; 40 g/a): 5; Phytotoxicity on rice (rice; 10 g/a): 0; Herbicidal effect, barnyard grass ([6]; 10 g./a.): 4; Herbicidal effect, redroot pigweed ([7]; 10 g./a.): 3; Herbicidal effect, large crabgrass ([8]; 10 g./a.): 5 |
| C=CCSP(=O)(OCCC)SCC(=O)N1CCCCC1CC (stereo not shown) [Compound 91] | 3 | 3 | 4 | 0 | 0 | 0 | 3 | 4 | 4 | 5 | 5 | 5 | 0 | 0 | 5 | 5 | 3 | 4 | 5 | 5 | Herbicidal effects, barnyard grass ([9]; 10 g/a): 4; Herbicidal effects, barnyard grass ([5]; 20 g/a): 5; Herbicidal effects, barnyard grass ([5]; 40 g/a): 5; Phytotoxicity on rice (rice; 10 g/a): 0; Herbicidal effect, barnyard grass ([6]; 10 g./a.): 4; Herbicidal effect, redroot pigweed ([7]; 10 g./a.): 3; Herbicidal effect, large crabgrass ([8]; 10 g./a.): 5 |
| Oc1c(Cl)c(Cl)c(Cl)c(Cl)c1Cl [PCP, reference compound] | – | – | – | – | – | – | – | – | – | – | – | – | – | – | – | – | – | – | – | – | Herbicidal effect, common lambsquarter ([1]; 50 g./a.): 2; Herbicidal effect, common lambsquarter ([1]; 100 g./a.): 4; Herbicidal effect, radish (radish; 50 g./a.): 1; Herbicidal effect, radish (radish; 100 g./a.): 4; Herbicidal effect, common purslane ([2]; 50 g./a.): 2; Herbicidal effect, common purslane ([2]; 100 g./a.): 4; Herbicidal effects, barnyard grass ([9]; 50 g/a): 4; Herbicidal effects, broad-leaved weeds ([4]; 50 g/a): 5; Herbicidal effects, broad-leaved weeds ([4]; 100 g/a): 5; Herbicidal effects, barnyard grass ([5]; 100 g/a): 5; Phytotoxicity on rice (rice; 50 g/a): 2; Phytotoxicity on rice (rice; 100 g/a): 3; Herbicidal effect, barnyard grass ([6]; 50 g./a.): 2; Herbicidal effect, barnyard grass ([6]; 100 g./a.): 3; Herbicidal effect, redroot pigweed ([7]; 50 g./a.): 2; Herbicidal effect, redroot pigweed ([7]; 100 g./a.): 4; Herbicidal effect, large crabgrass ([8]; 50 g./a.): 2; Herbicidal effect, large crabgrass ([8]; 100 g./a.): 4 |
| COP(=S)(NC(C)C)Oc1ccc(Cl)cc1Cl (stereo not shown) [Zytron, reference compound] | – | 0 | 2 | – | 0 | 0 | – | 1 | 2 | – | – | – | 0 | 0 | 3 | 4 | 0 | 1 | 1 | 3 | Herbicidal effects, barnyard grass ([9]; 20 g/a): 1; Herbicidal effects, barnyard grass ([9]; 40 g/a): 3; Herbicidal effects, broad-leaved weeds ([10]; 20 g/a): 2; Herbicidal effects, broad-leaved weeds ([10]; 40 g/a): 3 |
